Laboratory results taken from PMC6883173 (Nature, 2019).

Assays:
SpoT1–387 = SpoT1–387 (Pseudomonas aeruginosa, UniProt Q9HTM0); test: NDK/PK/LDH coupled NADH assay; assay type: biochemical
PurF^EC = PurF^EC (Escherichia coli, UniProt P0AG16); test: coupled PurD/PK/LDH NADH assay; assay type: biochemical; conditions: 30 °C; 50 nM PurF, 5 mM glutamine, 1 mM pRpp-Mg, 10 mM MgCl2, pH 7.4
crystal structure = biological target: the molecule itself; test: crystal structure

With Nc1ncnc2c1ncn2[C@@H]1O[C@H](COP(=O)(O)OP(=O)(O)O)[C@@H](OP(=O)(O)OP(=O)(O)O)[C@H]1O [ppApp] the “NDK/PK/LDH coupled NADH assay (A340)” value (SpoT1–387; 1 mM ppApp, otherwise same) was “ppGpp-hydrolyzing domain of SpoT was substantially less active on ppApp than ppGpp in vitro” and the activity versus concentration (PurF^EC) was “Changes to the activity of PurF^EC in the presence of indicated concentrations of ppGpp or ppApp”.

Nc1nc2c(ncn2[C@@H]2O[C@H](COP(=O)(O)OP(=O)(O)O)[C@@H](OP(=O)(O)OP(=O)(O)O)[C@H]2O)c(=O)[nH]1 [ppGpp] was tested, and the “NDK/PK/LDH coupled NADH assay (A340)” value (SpoT1–387; 1 mM ppGpp, 10 uM enzyme, 5 mM MnCl2, 2 mM MgCl2, pH 7.4, 30 °C) was “ppGpp-hydrolyzing domain of SpoT was substantially less active on ppApp than ppGpp in vitro”.

B1: PurF from E. coli (PurF^EC), glutamine amidophosphoribosyltransferase (enzyme, UniProt P0AG16 1-505, looked up)
chain: MCGIVGIAGVMPVNQSIYDALTVLQHRGQDAAGIITIDANNCFRLRKANGLVSDVFEARHMQRLQGNMGIGHVRYPTAGSSSASEAQPFYVNSPYGITLAHNGNLTNAHELRKKLFEEKRRHINTTSDSEILLNIFASELDNFRHYPLEADNIFAAIAATNRLIRGAYACVAMIIGHGMVAFRDPNGIRPLVLGKRDIDENRTEYMVASESVALDTLGFDFLRDVAPGEAIYITEEGQLFTRQCADNPVSNPCLFEYVYFARPDSFIDKISVYSARVNMGTKLGEKIAREWEDLDIDVVIPIPETSCDIALEIARILGKPYRQGFVKNRYVGRTFIMPGQQLRRKSVRRKLNANRAEFRDKNVLLVDDSIVRGTTSEQIIEMAREAGAKKVYLASAAPEIRFPNVYGIDMPSATELIAHGREVDEIRQIIGADGLIFQDLNDLIDAVRAENPDIQQFECSVFNGVYVTKDVDQGYLDFLDTLRNDDAKAVQRQNEVENLEMHNEG
For B1, the “stoichiometry N” value (crystal structure) was 4.
